The values that follow come from patent US10123984B2, “Neprilysin inhibitors” (THERAVANCE BIOPHARMA R&D IP, LLC, priority 2011, dated 2018).

For test [1], the target named is T1, NEP (Homo sapiens (Human), UniProt P08473). Put plainly: Assay 1: in vitro enzyme inhibition assay at human NEP (fluorogenic peptide substrate). The format is biochemical. The settings on record: pKi values at human NEP.
Procedure: The assays were performed in 384-well white opaque plates at 37° C. using the fluorogenic peptide substrates at a concentration of 10 μM in Assay Buffer (NEP: 50 mM HEPES, pH 7.5, 100 mM NaCl, 0.01% polyethylene glycol sorbitan monolaurate (Tween-20), 10 μM ZnSO4; ACE: 50 mM HEPES, pH 7.5, 100 mM NaCl, 0.01% Tween-20, 1 μM ZnSO4).
Test compounds were assayed over the range of concentrations from 10 μM to 20 pM. Test compounds were added to the enzymes and incubated for 30 minute at 37° C. prior to initiating the reaction by the addition of substrate. Reactions were terminated after 20 minutes of incubation at 37° C. by the addition of glacial acetic acid to a final concentration of 3.6% (v/v).
Inhibition constants were obtained by nonlinear regression of the data using the equation (GraphPad Software, Inc., San Diego, Calif.): v=v0/[1+(I/K′)] where v is the reaction rate, v0 is the uninhibited reaction rate, I is the inhibitor concentration and K′ is the apparent inhibition constant.
For test [2], the target named is T1, NEP. The note with it: relative to 21a (succinic acid substituent); quoted from Ksander et al.; cited from earlier work.
The mark [3] stands for this setting: comparative examples, exact values.

The term Ki denotes a measure of affinity in units of concentration, obtained from inhibition or displacement. High values mean a looser hold on the target, low ones a stronger hold on the target. In the case of `O=C(O)CC(=O)N[C@H](Cc1ccc(-c2cccc(Cl)c2)cc1)C[C@@H](O)C(=O)O` [Comparative Compound I, (2R,4R)-4-(2-Carboxy-acetylamino)-5-(3′-chloro-biphenyl-4-yl)-2-hydroxy-pentanoic Acid], at NEP [1] (setting [3]), the affinity, expressed as Ki, was 3.98 nM. In the case of `O=C(O)C(=O)N[C@H](Cc1ccc(-c2ccccc2F)cc1)C[C@@H](CO)C(=O)O` [Example 7B, (2S,4S)-5-(2′-Fluorobiphenyl-4-yl)-2-hydroxymethyl-4-(oxalylamino)pentanoic Acid], at NEP [1] (reported as ranges), the Ki is at most 1 nM. Consider `CC(C)COC(=O)C(=O)NN(Cc1ccc(-c2cc(Cl)ccc2F)cc1)C[C@@H](O)C(=O)O` [Example 14C, (R)-3-[N-(5′-Chloro-2′-fluorobiphenyl-4-ylmethyl)-N′-isobutoxyoxalylhydrazino]-2-hydroxypropionic Acid], for which the Ki on NEP [1] (reported as ranges) is 1.26 to 10 nM. The molecule `O=C(O)CC(=O)N[C@H](Cc1ccc(-c2ccccc2)cc1)C[C@@H](CO)C(=O)O` [Comparative Compound F, (2S,4S)-5-Biphenyl-4-yl-4-(2-carboxy-acetylamino)-2-hydroxymethylpentanoic Acid] showed a Ki at NEP [1] (setting [3]) of 6.31 nM. In general, pKi refers to the Ki on a negative log10 scale, so that one unit is a factor of ten. High values mean a small Ki, low ones a large Ki. On NEP [1] (reported as ranges), “(2R,4R)-5-(3,3′-Dichlorobiphenyl-4-yl)-2-hydroxy-4-(oxalylamino)pentanoic acid ethyl ester [Example 5-17]” returned a pKi of at least 9. On NEP [1] (setting [3]), `O=C(O)CCCC(=O)N[C@H](Cc1ccc(-c2ccccc2)cc1)CC(O)C(=O)O` (stereo partly drawn) [Comparative Compound E, (R)-5-Biphenyl-4-yl-4-(4-carboxybutyrylamino)-2-hydroxypentanoic Acid] had a Ki of 50.1 nM. Turning to `O=C(O)CCCC(=O)N[C@H](Cc1ccc(-c2ccccc2)cc1)C[C@@H](CO)C(=O)O` [Comparative Compound H, (2S,4S)-5-Biphenyl-4-yl-4-(4-carboxy-butyrylamino)-2-hydroxymethylpentanoic Acid], at NEP [1] (setting [3]), the affinity corresponds to a Ki of 2.51 nM.

Take `O=C(O)CCC(=O)N[C@H](Cc1ccc(-c2ccccc2)cc1)CC(O)C(=O)O` (stereo partly drawn) [Comparative Compound D, (R)-5-Biphenyl-4-yl-4-(3-carboxypropionylamino)-2-hydroxypentanoic Acid]: the Ki on NEP [1] (setting [3]) was 39.8 nM.

`O=C(O)C(=O)N[C@H](Cc1ccc(-c2cccc(Cl)c2)cc1)C[C@@H](O)C(=O)O` [Example 2A, (2R,4R)-5-(3′-Chlorobiphenyl-4-yl)-2-hydroxy-4-(oxalylamino)pentanoic Acid] showed a Ki at NEP [1] (setting [3]) of 0.2 nM. In the case of `O=C(O)CCC(=O)N[C@H](Cc1ccc(-c2cccc(Cl)c2)cc1)C[C@@H](O)C(=O)O` [Comparative Compound J, (2R,4R)-4-(3-Carboxy-propionylamino)-5-(3′-chloro-biphenyl-4-yl)-2-hydroxy-pentanoic Acid], on NEP [1] (setting [3]), the Ki was 0.316 nM.

`C[C@H](C[C@@H](Cc1ccc(-c2ccccc2)cc1)NC(=O)CCCCC(=O)O)C(=O)O` [Example 21f]: the decrease in activity on NEP [2] is listed as 65 fold.

On NEP [1] (reported as ranges), `CC(C)COC(=O)C(=O)N[C@H](Cc1ccc(-c2cc(Cl)ccc2Cl)cc1)C[C@@H](O)C(=O)O` [Example 3D, (2R,4R)-5-(2′,5′-Dichlorobiphenyl-4-yl)-2-hydroxy-4-(isobutoxyoxalylamino)-pentanoic Acid] had a Ki of at most 1 nM. For the molecule `O=C(O)CCCC(=O)N[C@H](Cc1ccc(-c2cccc(Cl)c2)cc1)C[C@@H](O)C(=O)O` [Comparative Compound K, (2R,4R)-4-(4-Carboxy-butyrylamino)-5-(3′-chloro-biphenyl-4-yl)-2-hydroxy-pentanoic Acid], the Ki on NEP [1] (setting [3]) is 0.501 nM. `O=C(N[C@H](Cc1ccc(-c2cccc(Cl)c2)cc1)C[C@@H](O)C(=O)O)C(=O)OCCC(F)(F)F` [Example 2N, (2R,4R)-5-(3′-Chlorobiphenyl-4-yl)-2-hydroxy-4-[(3,3,3-trifluoropropoxyoxalyl)-amino]pentanoic Acid] returned a pKi on NEP [1] (reported as ranges) of at least 9. Regarding `O=C(O)C(=O)N[C@H](Cc1ccc(-c2ccccc2)cc1)CC(O)C(=O)O` (stereo partly drawn) [Example 1, (R)-5-Biphenyl-4-yl-2-hydroxy-4-(oxalylamino)pentanoic Acid], affinity on NEP [1] (setting [3]) was put at a Ki of 12.6 nM. `O=C(O)C(=O)NN(Cc1ccc(-c2cc(Cl)ccc2F)cc1)C[C@@H](O)C(=O)O` [Example 14A, (R)-3-[N-(5′-Chloro-T-fluorobiphenyl-4-ylmethyl)-N-oxalylhydrazino]-2-hydroxypropionic Acid] gave a Ki at NEP [1] (reported as ranges) of at most 1 nM. As for `O=C(O)CCC(=O)N[C@H](Cc1ccc(-c2ccccc2)cc1)C[C@@H](CO)C(=O)O` [Comparative Compound G, (2S,4S)-5-Biphenyl-4-yl-4-(3-carboxy-propionylamino)-2-hydroxymethylpentanoic Acid], the affinity at NEP [1] (setting [3]), expressed as Ki, was 1 nM. Take `C[C@H](CC(Cc1ccc(-c2ccccc2)cc1)NC(=O)CC(=O)O)C(=O)O` (stereo partly drawn) [Example 21g]: on NEP [2], the decrease in activity is listed as 18 fold. Consider `O=C(O)CC(=O)N[C@H](Cc1ccc(-c2ccccc2)cc1)CC(O)C(=O)O` (stereo partly drawn) [Comparative Compound C, (R)-5-Biphenyl-4-yl-4-(2-carboxyacetylamino)-2-hydroxypentanoic Acid], for which the Ki on NEP [1] (setting [3]) is 200 nM.

In turn, “(R)-3-N-(3,5′-Dichloro-2′-fluorobiphenyl-4-ylmethyl)-N′-oxalyl-hydrazinol-2-hydroxypropionic acid [Example 5-13]” yielded a pKi at NEP [1] (reported as ranges) of at least 9. Consider `C[C@H](C[C@@H](Cc1ccc(-c2ccccc2)cc1)NC(=O)CCCC(=O)O)C(=O)O` [Example 21e], for which the decrease in activity on NEP [2] is on record as 18 fold.
